Laboratory results taken from patent US8377918B2 (ACC Therapeutics Inc, priority 2005, dated 2013).

Assays:
[1] = tested on: HIF-1 expression in A2780/CP70 cells; test: HIF-1 immunoblotting, A2780/CP70; type: cell-based, human
From the text: (§1) FIG. 5. […] The cells treated with solvent alone were used as a control. HIF-1α and HIF-1β protein levels were detected by immunoblotting as described in Materials and Methods. GAPDH was used as an internal control to test the loading and transfer efficiency.

[2] = tested on: A549 cell-induced tumor angiogenesis; test: A549 Matrigel plug angiogenesis in nude mice; type: in vivo; settings: 15 μM apigenin in plug, 15 days
Description: FIG. 16. […] Each treatment group contained four mice. The mice were euthanized 15 days after implantation. Representative Matrigel plugs from the solvent- and apigenin-treated groups. C, D, the relative angiogenesis was analyzed by the levels of RBC hemoglobin, a surrogate marker, in the Matrigel plugs. The hemoglobin content was analyzed by adding 1×RBC lysis buffer (1 mM EDTA and 5 mM potassium/sodium phosphate buffer, pH 8-8.5) to a plug, followed by incubation at 4° C. overnight. Hemoglobin levels were determined by the Drabkin method by a commercial assay kit (Sigma) according to the manufacturer's instruction with some modification. […] Relative hemoglobin content is the hemoglobin level (milligrams) divided by the final volume of each plug. The data are the mean±S.E. of eight Matrigel plugs for each experiment. *, significant difference compared with the solvent control (p<0.05).

HCT-116 cells = test: MTT cell proliferation assay, HCT-116 colon cancer cells; type: cell-based, human; settings: HCT-116, apigenin alone, 24 h
Description: (§2) FIG. 17. […] A, the prostate cancer cells PC-3 and DU145; B, colon cancer cells Colo-205 and HCT-116; C, lung cancer cells A549 and H460 cells were plated at 1×10^4 cells per well in a 96 well plate in 100 μl of media.

A549 tumors = test: A549 tumor growth in nude mice; type: in vivo; settings: 3 mg/kg intraperitoneal three times a week, day 40
Description: FIG. 15. […] Each treatment group contained 10 mice. […] The mice were euthanized on day 40. A, representative tumors from the control and apigenin-treated groups. Scale bar, 1 cm. B, tumor volumes were measured by the width and length of tumors from 10 mice in each treatment when tumors were visible. The mean±S.D. were obtained from 10 mice. C, the tumors were removed from mice, measured by the width and length, and analyzed as above. D, the mean±S.D. of the tumor weight. *, significant difference when compared with the solvent control (p<0.05).

A549 cells = test: MTT cell proliferation assay, A549 lung cancer cells; type: cell-based, human; settings: A549, apigenin alone, 24 h
Description: as §2

endothelial cells = test: Tube formation in vitro; type: cell-based
A2780/CP70 tumors = test: Secondary tumor growth in chicken embryos; type: in vivo, chicken embryo; settings: 7.5 μM apigenin, 9 days
Description: FIG. 2. […] Ovarian cancer cells A2780/CP70 were planted into 9-days old fertilized chicken embryos and incubated for 9 days to allow the tumor formation. The formed tumors were harvested and cut into pieces of 9-10 mg weight, and immediately implanted into another 9-day old fertilized chicken embryo and incubated for 9 days. […] In 9 days, the secondary tumor was cut and weighed.

A2780/CP70 cells = test: MTT cell proliferation assay, A2780/CP70 ovarian cancer cells; type: cell-based, human; settings: A2780/CP70, apigenin alone, 24 h
Description: FIG. 1. […] (A) A2780/CP70 cells and human fibroblast GM847 cells were seeded in 96-well plate at 4×10^3 cells per well and incubated overnight. […] The cells were incubated for 24 h. Cell proliferation was determined by MTT reduction. […] Cells were trypsinized, harvested, washed once with PBS buffer, and stained using the Annexin-V-Folus Kit as per the manufacture's instructions. […] After incubation, all cells were collected and total DNA was isolated. Eight (8) μg of DNA was resolved on 1.8% agarose gel. […] (D) Treatment of GM847 cells was the same as that of 5D. […] Cleavage of caspase-3 and PARP was detected by western-blot.
FIG. 3. […] A2780/CP70 cells were seeded in 96-well plates and incubated overnight. The old medium was discarded and fresh medium with cisplatin (CDDP) in the presence or absence of apigenin (Api) was added. In 24 h, the cell proliferation was determined by means of MTT reduction method.
FIG. 9. […] A, Cisplatin-resistant ovarian cancer cell line A2780/CP70, and B, prostate cancer cells PC-3 were seeded in 96-well plates at 1×10^4 cells/well and incubated overnight. […] In 24 h, the cell proliferation was assayed by using a MTT assay kit. *indicates significant difference compared to cisplatin alone (p<0.01).

Colo-205 cells = test: MTT cell proliferation assay, Colo-205 colon cancer cells; type: cell-based, human; settings: Colo-205, apigenin alone, 24 h
Description: FIG. 17. […] A, the prostate cancer cells PC-3 and DU145; B, colon cancer cells Colo-205 and HCT-116; C, lung cancer cells A549 and H460 cells were plated at 1×10^4 cells per well in a 96 well plate in 100 μl of media. […] FIG. 20. […] A, the prostate cancer cells PC-3 and DU145; B, colon cancer cells Colo-205 and HCT-116; C, lung cancer cells A549 and H460 cells were plated at 1×10^4 cells per well in a 96 well plate. […] Cell proliferation was examined by MTT assay. […] FIG. 22. […] A, colon cancer cells Colo-205 and HCT-116; B, lung cancer cells A549 and H460 cells were plated at 1×10^4 cells per well in a 96 well plate the day before the treatment. […] Cell proliferation was examined by MTT assay. […] FIG. 24. […] The IC50 values for inhibiting cell proliferation were calculated from cell proliferation assay as described above.

DU145 cells = test: MTT cell proliferation assay, DU145 prostate cancer cells; type: cell-based, human; settings: 24 h
Description: FIG. 8. […] Prostate cancer cells PC-3 and DU145 were seeded in 96-well plates at 1×10^4 cells/well. […] The cell proliferation was assayed by culturing the cells for 24 h, then adding 10 μl of MTT reagent with incubation for 2 h. The reaction was stopped by adding 100 μl of solubilization solution. The relative cell proliferation was obtained by the reading at 590 nm which was recorded in a spectrophotometer, and normalized to the value of control.
as §2
FIG. 19. […] A, prostate cancer cells PC-3; and B, DU145 cells were plated at 1×10^4 cells per well in a 96 well plate in 100 μl of media. […] Cell proliferation was examined by MTT assay.
FIG. 21. […] A, the prostate cancer cells PC-3 and DU145; B and C, colon cancer cells Colo-205 and HCT-116 were plated at 1×10^4 cells per well in a 96 well plate in 100 μl of media a day before the treatment.
FIG. 23. […] Cell proliferation was examined by MTT assay.

[3] = tested on: HIF-1 expression in OVCAR-3 cells; test: HIF-1 immunoblotting, OVCAR-3; type: cell-based, human
From the text: as §1

Compound: O=c1cc(-c2ccc(O)cc2)oc2cc(O)cc(O)c12 [apigenin, 4′,5,7,-trihydroxyflavone]
- effect on HIF-1 expression [1]: inhibited HIF-1 expression
- effect on tumor angiogenesis (hemoglobin content of Matrigel plugs) [2]: inhibited A549 cell-induced tumor angiogenesis
- effect on cell proliferation (HCT-116 cells): inhibited the proliferation
- effect on tumor growth in vivo (A549 tumors): inhibited tumor growth in vivo
- effect on cell proliferation (A549 cells): inhibited the proliferation
- effect on tube formation (endothelial cells): inhibited tube formation
- effect on tumor growth (secondary tumor weight) (A2780/CP70 tumors): inhibited tumor growth
- effect on cell proliferation (A2780/CP70 cells): inhibited cell proliferation
- effect on cell proliferation (Colo-205 cells): inhibited the proliferation
- effect on sensitivity to etoposide treatment (DU145 cells; DU145, 15 μM apigenin): increased the sensitivity
- effect on cell proliferation (DU145 cells; DU145, apigenin alone): inhibited
- effect on HIF-1 expression [3]: inhibited HIF-1 expression
